The values below come from ChEMBL document CHEMBL1201862, “PubChem BioAssay data set” (2004).

Assay [1] has as its target Heat shock protein HSP 90-alpha (Homo sapiens, UniProt P07900). It counts as functional, organism-based.
Assay [2] deals with HEK293. Put plainly: HEK293T cell viability loss, resazurin readout – resazurin fluorescence, cytotoxicity control for NF-kB activator project, SAR follow-up (AID 493251). Format: functional, cell-based. To be noted: Homo sapiens.
The target in assay [3] is ATP-dependent molecular chaperone HSP82 (Candida albicans (strain WO-1) (Yeast), UniProt C4YTQ8). Nature of the assay: steroid-induced GRE reporter decrease in yeast – S. cerevisiae, luminescence, Hsp90 inhibitor project, dose response (AID 2400).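 Note: beta-galactosidase luminescence from glucocorticoid response element reporter as proxy for Hsp90 function; inhibitor potency where signal loss means Hsp90 inhibition.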 Format: functional, cell-based.
Assay [4] is described as follows: loss of viability in HepG2 cells – cell-based, CellTiter-Glo, cherry-picked, cytotoxicity control for Shn3 inhibitor project, dose response (AID 624134). Format: functional.
The nature of assay [5]: A2780 cell killing – plate reader, dry powder samples, cytotoxicity control, dose response (AID 743046). It counts as functional, cell-based.
Assay [6] is described as follows: PAX5 cellular inhibition readout – cell-based, plate reader, dry powder samples, selectivity assay for PAX8 inhibitor project, dose response (AID 743047).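 Note: HEK293 cells carrying a Pax5 driven CD19 promoter luciferase reporter; potency of inhibitors that lower reporter luminescence.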 Format: functional.
A short description of assay [7]: OVCAR4 cell viability loss – plate reader, dry powder, SA11, cytotoxicity control for PAX8 inhibitor project, dose response (AID 743150). It counts as functional, cell-based. The conditions noted are these: OVCAR-4.
Assay [8] can be described thus: PAX8-dependent cell viability loss – plate reader, dry powder, dose response (AID 743049). Format: functional, cell-based.
The nature of assay [9]: Luminescence Cell-Based Dose Response HTS to Identify Inhibitors of 5'UTR Stem-Loop Driven Prion Protein mRNA Translation in H4 Neuroglioblastoma Cells. [Related pubchem assays: 1827 (Project Summary), 1813 (Primary HTS)]. Format: functional.
Assay [10] is described as follows: MIN6 cell viability loss – mouse insulinoma, cytotoxicity control, dose response (AID 2122).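 Note: confirmatory high-throughput counterscreen run to flag cytotoxic compounds; mouse MIN-6 beta cells carrying an insulin promoter eGFP reporter.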 Format: functional.
The target in assay [11] is T1, Intestinal-type alkaline phosphatase (Homo sapiens, UniProt P09923). Put plainly: human intestinal alkaline phosphatase activators, dose response, biochemical, luminescence, uHTS hits (AID 463120). Format: functional.
In assay [12] the target is T1, Intestinal-type alkaline phosphatase. Nature of the assay: activation of human intestinal alkaline phosphatase – biochemical, luminescent, uHTS hits, set 2, dose response (AID 488817).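 Note: potency of activators that raise enzyme activity.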 Format: functional.
The nature of assay [13]: HGIII-sPLA2 enzyme inhibition potency – biochemical, QFRET, IC50, dose response (AID 743457).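 Note: green fluorescence rise as the enzyme cleaves BODIPY PC-A2 in liposomes.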
Assay [14] concerns the target Luciferin 4-monooxygenase (Photinus pyralis, UniProt P08659). Nature of the assay: Counter Screen for Luciferase-based Assay Positives. [Related pubchem assays: 620, 618, 411 ]. On the technique in general: Counterscreens check selectivity or assay interference.
Assay [15] in a line: Vero E6 cell cytotoxicity, dose response, cytotoxicity control for non-replicating M. tuberculosis project, secondary assay (AID 492998). To be noted: Vero C1008. Format: functional, VeroE6.
Assay [16] in a line: blockers of HIV-1 envelope-mediated cell-cell fusion – cherry-pick, dose response (AID 652057). Format: functional, cell-based.
Assay [17] is described as follows: HIV-1 AD8 envelope cell-cell fusion blockers – cherry-pick, dose response (AID 652062).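 Note: luciferase signal from cell-cell fusion driven by HIV-1 clade B AD8 Env; potency is for inhibitors of fusion seen as a drop in luminescence.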 Format: functional, cell-based.
For assay [18], the target named is T2, Caspase-6 (Homo sapiens, UniProt P55212).
T2 sequence (P55212 whole entry): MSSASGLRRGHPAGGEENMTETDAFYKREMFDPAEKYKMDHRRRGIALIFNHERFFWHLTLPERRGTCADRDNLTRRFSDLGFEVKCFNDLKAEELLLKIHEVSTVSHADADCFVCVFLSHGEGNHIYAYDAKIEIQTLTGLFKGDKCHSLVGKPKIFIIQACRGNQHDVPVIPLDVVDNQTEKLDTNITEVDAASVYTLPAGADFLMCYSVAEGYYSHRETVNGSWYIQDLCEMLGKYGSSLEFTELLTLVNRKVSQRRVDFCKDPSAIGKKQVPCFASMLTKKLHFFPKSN
Put plainly: inhibition of CASP6 peptide cleavage – biochemical, VEID-R110 fluorescence, cherry-pick, dose response (AID 720632).

The target of assay [19] is T3, Histone-lysine N-methyltransferase NSD2 (Homo sapiens, UniProt O96028).
T3 sequence (O96028 whole entry): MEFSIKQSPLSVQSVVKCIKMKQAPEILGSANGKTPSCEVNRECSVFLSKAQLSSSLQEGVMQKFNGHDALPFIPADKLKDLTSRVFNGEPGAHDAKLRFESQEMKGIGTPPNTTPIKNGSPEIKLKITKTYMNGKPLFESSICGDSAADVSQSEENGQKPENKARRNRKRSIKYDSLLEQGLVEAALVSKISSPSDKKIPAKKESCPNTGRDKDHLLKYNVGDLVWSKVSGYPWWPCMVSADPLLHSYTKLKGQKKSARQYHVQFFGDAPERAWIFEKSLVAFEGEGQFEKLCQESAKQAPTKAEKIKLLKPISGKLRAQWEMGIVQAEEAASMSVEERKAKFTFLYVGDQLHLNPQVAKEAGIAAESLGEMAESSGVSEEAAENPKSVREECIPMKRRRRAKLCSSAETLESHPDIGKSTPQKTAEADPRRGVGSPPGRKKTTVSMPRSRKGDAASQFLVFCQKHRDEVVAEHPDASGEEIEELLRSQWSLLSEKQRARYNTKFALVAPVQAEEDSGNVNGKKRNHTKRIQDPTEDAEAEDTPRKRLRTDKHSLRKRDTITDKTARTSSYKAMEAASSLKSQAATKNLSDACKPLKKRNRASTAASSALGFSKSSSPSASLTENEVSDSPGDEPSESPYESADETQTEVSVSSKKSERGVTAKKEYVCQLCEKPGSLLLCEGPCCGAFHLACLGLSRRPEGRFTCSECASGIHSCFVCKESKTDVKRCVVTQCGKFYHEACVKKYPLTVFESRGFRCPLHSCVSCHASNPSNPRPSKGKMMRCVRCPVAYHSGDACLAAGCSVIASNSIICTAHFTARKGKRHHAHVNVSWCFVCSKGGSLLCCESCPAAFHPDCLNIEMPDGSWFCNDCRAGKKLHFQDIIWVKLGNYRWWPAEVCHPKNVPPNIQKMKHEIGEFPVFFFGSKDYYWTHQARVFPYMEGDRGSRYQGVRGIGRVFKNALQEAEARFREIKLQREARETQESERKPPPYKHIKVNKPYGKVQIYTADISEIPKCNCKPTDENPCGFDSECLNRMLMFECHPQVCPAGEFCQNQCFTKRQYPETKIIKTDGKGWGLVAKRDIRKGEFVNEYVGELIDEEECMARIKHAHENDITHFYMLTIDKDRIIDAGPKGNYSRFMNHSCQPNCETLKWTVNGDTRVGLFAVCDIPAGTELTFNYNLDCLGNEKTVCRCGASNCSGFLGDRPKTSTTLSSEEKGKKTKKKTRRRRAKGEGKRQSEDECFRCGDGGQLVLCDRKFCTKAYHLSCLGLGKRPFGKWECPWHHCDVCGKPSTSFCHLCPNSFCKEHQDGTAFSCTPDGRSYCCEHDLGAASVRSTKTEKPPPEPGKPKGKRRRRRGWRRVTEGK
Format: biochemical.

Molecules are shown by their SMILES. The source made the active and inactive calls.

Usually AC50 stands for the concentration giving half of the maximal activity seen. One may read the IC50 as the concentration that inhibits the measured activity by half. As a reminder, the EC50 is the concentration giving half of the maximal effect. One may read the CC50 as the concentration that lowers cell viability or growth by half.

T1 sequence (P09923 whole entry): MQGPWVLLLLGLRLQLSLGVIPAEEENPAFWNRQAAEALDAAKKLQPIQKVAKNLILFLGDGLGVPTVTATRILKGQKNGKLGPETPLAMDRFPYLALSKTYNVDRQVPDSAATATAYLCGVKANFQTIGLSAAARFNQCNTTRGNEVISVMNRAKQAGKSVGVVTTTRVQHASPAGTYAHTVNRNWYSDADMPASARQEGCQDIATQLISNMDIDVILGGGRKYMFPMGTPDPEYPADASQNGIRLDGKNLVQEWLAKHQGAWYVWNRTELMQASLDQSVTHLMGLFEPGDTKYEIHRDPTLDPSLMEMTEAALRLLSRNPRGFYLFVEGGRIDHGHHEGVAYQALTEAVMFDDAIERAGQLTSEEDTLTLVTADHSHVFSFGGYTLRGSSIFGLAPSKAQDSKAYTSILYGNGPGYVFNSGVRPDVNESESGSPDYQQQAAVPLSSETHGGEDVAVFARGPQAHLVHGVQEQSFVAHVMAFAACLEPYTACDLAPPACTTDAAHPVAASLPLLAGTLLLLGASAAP
Sequence of ATP-dependent molecular chaperone HSP82 (C4YTQ8 whole entry): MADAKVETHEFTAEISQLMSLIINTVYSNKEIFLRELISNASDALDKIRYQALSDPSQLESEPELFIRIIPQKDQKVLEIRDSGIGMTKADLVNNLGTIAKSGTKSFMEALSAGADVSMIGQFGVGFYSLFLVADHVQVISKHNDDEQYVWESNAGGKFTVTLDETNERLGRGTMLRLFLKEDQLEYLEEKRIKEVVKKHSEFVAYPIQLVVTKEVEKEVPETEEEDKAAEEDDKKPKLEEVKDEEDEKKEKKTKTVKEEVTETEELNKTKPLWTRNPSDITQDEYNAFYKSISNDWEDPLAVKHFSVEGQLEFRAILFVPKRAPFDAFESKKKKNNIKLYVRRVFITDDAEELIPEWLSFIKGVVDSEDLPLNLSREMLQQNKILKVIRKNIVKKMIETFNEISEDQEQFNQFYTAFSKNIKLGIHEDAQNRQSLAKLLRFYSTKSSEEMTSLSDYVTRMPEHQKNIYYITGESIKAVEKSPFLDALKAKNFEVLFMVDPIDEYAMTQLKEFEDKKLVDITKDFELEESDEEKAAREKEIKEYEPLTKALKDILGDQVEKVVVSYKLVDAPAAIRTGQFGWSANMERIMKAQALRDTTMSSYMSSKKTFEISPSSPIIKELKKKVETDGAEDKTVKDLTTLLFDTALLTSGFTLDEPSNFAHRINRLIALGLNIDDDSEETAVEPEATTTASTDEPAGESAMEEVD
Sequence of Luciferin 4-monooxygenase (P08659 whole entry): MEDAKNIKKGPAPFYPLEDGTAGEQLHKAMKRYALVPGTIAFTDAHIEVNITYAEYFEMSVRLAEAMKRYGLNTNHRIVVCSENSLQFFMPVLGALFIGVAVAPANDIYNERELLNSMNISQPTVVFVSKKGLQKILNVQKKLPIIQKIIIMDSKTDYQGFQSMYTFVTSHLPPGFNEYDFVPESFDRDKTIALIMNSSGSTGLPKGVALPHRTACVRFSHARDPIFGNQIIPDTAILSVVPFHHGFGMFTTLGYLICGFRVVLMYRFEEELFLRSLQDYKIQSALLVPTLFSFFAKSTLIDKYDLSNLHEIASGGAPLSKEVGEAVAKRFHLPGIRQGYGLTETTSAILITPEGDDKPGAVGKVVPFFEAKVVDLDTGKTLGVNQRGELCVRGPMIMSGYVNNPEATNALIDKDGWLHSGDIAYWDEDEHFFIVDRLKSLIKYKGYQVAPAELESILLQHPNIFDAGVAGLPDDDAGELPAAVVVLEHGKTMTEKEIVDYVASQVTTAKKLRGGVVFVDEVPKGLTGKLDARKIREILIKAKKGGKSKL

For the compound `CCCCC(=O)NC(c1ccccc1)c1ccc2cccnc2c1O` (stereo not given), the half-maximal activity concentration (AC50) is 25.5 µM (active) in assay [1]; 2.44 µM (active) in assay [4]; 2.13 µM (active) in assay [5]; 2.37 µM (active) in assay [6]; 9.22 µM (active) in [7]; 9.11 µM (active) in assay [8]. Also, the IC50 in assay [2] is 10.6 µM (active). The 50% effective concentration (EC50) in assay [3] is 24.2 µM (active).

`O=C(/C=C/c1cccs1)NC(=S)NNC(=O)c1ccccc1O`: the concentration giving a half-maximal response (EC50) in [9] is 9.65 µM (active); in assay [11], 8.8 µM (active); in [12], 11 µM (active). In addition, the IC50 in [10] is 2.57 µM (active); in assay [13], > 122 µM (inactive).

As for `CC(=O)N(Cc1ccc(F)cc1)C1=C(NCCc2ccccc2)C(=O)c2ccccc2C1=O`, in assay [14], the 50% effective concentration (EC50) was 7.95 µM (active). In addition, the 50% cytotoxic concentration (CC50) in [15] was 7 µM (active). In addition, the AC50 was 2.45 µM (active) in [16] and 8.23 µM (active) in assay [17].

For the compound `O=C(N/N=C1\C/C(=N\NC(=O)c2ccncc2)c2ccccc21)c1ccncc1`, the AC50 is 0.749 µM (active) in [18] and 4.72 µM (active) in assay [19].

In the case of `COc1ccc(-n2c3nc4ccccc4nc3c3c(=N)oc(C)nc32)cc1`, the AC50 in [19] was > 20 µM (inactive).
